# How the values were obtained:
# [1] = biological target: T1, NMDA receptor (NMDAR; GluN2B-containing) (Mus musculus, UniProt P35438+Q01097); assay: Fluo-3 NMDA-induced Ca2+ influx in primary neurons, single concentration ([…], […] reduction in AUC); assay type: cell-based
# T1 construct: gene Grin2b; native receptor in DIV 10–12 cerebrocortical neurons; with GluN1
# [2] = biological target: T1, NMDA receptor (NMDAR; GluN2B-containing); assay: Fluo-3 Ca2+ influx in primary neurons; […] inhibits NMDA response ([…] AUC); IC50 is against PbTx-2-induced influx; assay type: cell-based
# T1 sequence (Q01097 27-1482, other chains not shown): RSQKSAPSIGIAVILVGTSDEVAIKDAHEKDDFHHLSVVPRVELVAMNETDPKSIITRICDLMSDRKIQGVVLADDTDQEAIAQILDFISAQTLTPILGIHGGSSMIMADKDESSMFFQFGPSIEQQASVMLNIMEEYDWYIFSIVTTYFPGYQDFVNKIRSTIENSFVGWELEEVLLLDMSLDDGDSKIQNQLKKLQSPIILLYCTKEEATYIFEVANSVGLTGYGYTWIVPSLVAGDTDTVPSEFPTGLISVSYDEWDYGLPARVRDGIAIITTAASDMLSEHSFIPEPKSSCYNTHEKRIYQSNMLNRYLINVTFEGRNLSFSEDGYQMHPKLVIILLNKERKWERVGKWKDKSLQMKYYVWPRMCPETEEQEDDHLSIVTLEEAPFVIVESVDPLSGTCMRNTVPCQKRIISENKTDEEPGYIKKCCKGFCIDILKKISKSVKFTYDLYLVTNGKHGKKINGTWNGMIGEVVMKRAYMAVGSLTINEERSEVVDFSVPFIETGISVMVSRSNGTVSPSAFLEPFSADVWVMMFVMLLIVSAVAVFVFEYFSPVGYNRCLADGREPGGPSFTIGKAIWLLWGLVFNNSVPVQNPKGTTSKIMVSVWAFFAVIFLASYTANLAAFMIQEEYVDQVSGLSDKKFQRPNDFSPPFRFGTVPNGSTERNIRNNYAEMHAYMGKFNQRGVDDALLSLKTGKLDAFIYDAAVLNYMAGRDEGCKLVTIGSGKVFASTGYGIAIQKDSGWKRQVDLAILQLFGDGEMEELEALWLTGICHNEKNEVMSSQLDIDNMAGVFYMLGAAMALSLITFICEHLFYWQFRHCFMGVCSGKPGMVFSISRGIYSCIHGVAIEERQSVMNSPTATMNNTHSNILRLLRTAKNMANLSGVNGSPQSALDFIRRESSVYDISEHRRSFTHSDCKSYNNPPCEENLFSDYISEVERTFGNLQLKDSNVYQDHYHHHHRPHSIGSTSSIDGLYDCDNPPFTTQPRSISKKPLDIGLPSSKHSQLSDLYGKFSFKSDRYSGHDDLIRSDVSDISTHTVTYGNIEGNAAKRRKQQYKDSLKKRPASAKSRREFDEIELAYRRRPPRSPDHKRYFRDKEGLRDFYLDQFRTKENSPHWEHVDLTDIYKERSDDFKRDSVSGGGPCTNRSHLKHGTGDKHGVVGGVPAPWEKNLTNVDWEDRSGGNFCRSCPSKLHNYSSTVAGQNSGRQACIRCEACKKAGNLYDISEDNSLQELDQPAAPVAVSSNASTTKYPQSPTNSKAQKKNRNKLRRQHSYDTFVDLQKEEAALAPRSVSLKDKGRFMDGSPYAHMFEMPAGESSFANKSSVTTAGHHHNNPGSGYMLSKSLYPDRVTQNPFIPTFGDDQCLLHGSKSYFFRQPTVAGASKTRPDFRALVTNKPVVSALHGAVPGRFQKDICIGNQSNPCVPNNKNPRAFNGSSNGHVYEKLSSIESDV
SMILES,inhibition at 1 µM [1],IC50 [2]
C[C@]12N[C@H](Cc3ccccc31)c1ccccc12 [MK-801],75%,
CC(C(O)c1ccc(O)cc1)N1CCC(Cc2ccccc2)CC1 (centres unmarked) [ifenprodil],,2200 nM

# From paper PMC9504648 (Marine Drugs, 2022)
